Experimental data published in publication PMC4929432, “The Oligopeptide Permease Opp Mediates Illicit Transport of the Bacterial P-site Decoding Inhibitor GE81112” (Antibiotics, 2016).

Legend:
Opp of B. subtilis = conditions: ref [10]; cited from earlier work
[1] = tested on: bacterial peptide transporting systems; conditions: ref [10]; cited from earlier work
Text: Indeed, several peptide transport systems exist in E. coli as well in B. subtilis and the peptides actively transported inside the cells can supp ...

[2] = tested on: B. subtilis resistant clones; test: Cross-resistance of resistant clones; assay type: cell-based; conditions: of 10 GE81112-resistant clones
glutamine synthetase = conditions: product of bialaphos hydrolysis; ref [10]; cited from earlier work
opp expression = conditions: ref [17],[18]; cited from earlier work
[3] = tested on: ribosome, 16S rRNA mutation G926C; test: In vitro mRNA translation; assay type: biochemical; conditions: E. coli AVS69009 16S rRNA G926C
Protocol: (§1) The ribosomal localization of GE81112, as determined by a recent crystallographic study, places this antibiotic in a position that is not too far away from the binding site of kasugamycin [20, 21]. For this reason, some ribosomal mutants bearing 16S rRNA base substitutions that cause kasugamycin resistance were tested for their sensitivity to GE81112 inhibition.
(§2) The 027IF2Cp(A) mRNA and the bacterial S30 cell extracts were prepared as described. The incubation conditions for mRNA translation and for the determination of synthesized product have also been previously described.

[4] = tested on: ribosome, 16S rRNA mutation G926A; test: In vitro mRNA translation; assay type: biochemical; conditions: E. coli AVS69009 16S rRNA G926A
Protocol: as §1, §2

[5] = tested on: ribosome, 16S rRNA mutation A794U; test: In vitro mRNA translation; assay type: biochemical; conditions: E. coli AVS69009 16S rRNA A794U
Protocol: as §1, §2

[6] = tested on: ribosome, 16S rRNA mutation A794G; test: In vitro mRNA translation; assay type: biochemical; conditions: E. coli AVS69009 16S rRNA A794G
Protocol: as §1, §2

[7] = tested on: ribosome, 16S rRNA mutation A1518U; test: In vitro mRNA translation; assay type: biochemical; conditions: E. coli AVS69009 16S rRNA A1518U
Protocol: as §1, §2

ribosome, 16S rRNA wt = test: In vitro mRNA translation; assay type: biochemical; conditions: E. coli AVS69009 16S rRNA wt
Protocol: as §1, §2

[8] = tested on: ribosome, 16S rRNA mutation G926U; test: In vitro mRNA translation; assay type: biochemical; conditions: E. coli AVS69009 16S rRNA G926U
Protocol: as §1, §2

translation in vivo = conditions: early studies; ref [16]; cited from earlier work
Text: (§3) Therefore, the most likely explanation for the observed tri-L-ornithine/GE81112 cross-resistance is that the mutations have inactivated the same transport mechanism that allows these two molecules to enter the cell.

[9] = tested on: mRNA translation in cell-free extracts; conditions: ref [16]; cited from earlier work
Text: as §3

[10] = tested on: E. coli MG1655 resistant mutants; test: Cross-resistance of resistant mutants; assay type: cell-based; conditions: of 100 GE81112-resistant colonies; tri-L-ornithine 100 μg/mL
[11] = tested on: E. coli DH5α + pBΦ30 + pB2; test: Growth inhibition halo; assay type: cell-based; conditions: 10 μg; minimal medium agar; 24 h at 37 °C
Protocol: (§4) The inhibition of bacterial growth by antibiotics was also determined from the diameter of the growth inhibition halo. Bacterial suspensions obtained after overnight growth in minimal medium were diluted and inoculated in 4 mL of Agar–H2O (0.75%) and plated on minimal medium. Ten-microliter spots of the antibiotics were added and the growth inhibition halos measured after 24 h incubation at 37 °C.

[12] = tested on: E. coli SS5012 + pBΦ30 (oppA); test: Growth inhibition halo; assay type: cell-based; conditions: minimal medium agar, 24 h at 37 °C
Protocol: as §4

[13] = tested on: E. coli SS5012 + pB2 (oppBCDF); test: Growth inhibition halo; assay type: cell-based; conditions: minimal medium agar, 24 h at 37 °C
Protocol: as §4

E. coli MG1655 = test: Growth inhibition halo; assay type: cell-based
Protocol: as §4

E. coli SS320 (wt) = test: Growth inhibition halo; assay type: cell-based; conditions: minimal medium agar, 24 h at 37 °C
Protocol: as §4

[14] = tested on: E. coli DH5α + pB2 (oppBCDF); test: Growth inhibition halo; assay type: cell-based; conditions: 10 μg; minimal medium agar; 24 h at 37 °C
Protocol: as §4

E. coli DH5α = test: Growth inhibition halo; assay type: cell-based
Protocol: as §4

[15] = tested on: E. coli SS5012 (ΔoppABCDF); test: Growth inhibition halo; assay type: cell-based; conditions: for Halo of Inhibition: minimal medium agar, 24 h at 37 °C
Protocol: as §4

[16] = tested on: E. coli DH5α + pBΦ30 (oppA); test: Growth inhibition halo; assay type: cell-based; conditions: 10 μg; minimal medium agar; 24 h at 37 °C
Protocol: as §4

[17] = tested on: E. coli SS320 (wt) + pB2 + pBΦ30; test: Growth inhibition halo; assay type: cell-based; conditions: for Halo of Inhibition: minimal medium agar, 24 h at 37 °C
Protocol: as §4

[18] = tested on: E. coli SS5012 + pB2 + pBΦ30; test: Growth inhibition halo; assay type: cell-based; conditions: for Halo of Inhibition: minimal medium agar, 24 h at 37 °C
Protocol: as §4

Opp = conditions: ref [17]; cited from earlier work
[19] = 10 μg, minimal medium agar, 24 h at 37 °C

Compound: bialaphos
- active transport by Opp (Opp of B. subtilis): actively transported by Opp
- active transport with antibacterial effects [1]: actively transported inside the cell causing antibacterial effects
- GE81112-resistant clones sensitive to bialaphos [2]: none

Compound: CP(=O)(O)CC[C@H](N)C(=O)O [phosphinothricin]
- inhibition of glutamine synthetase (glutamine synthetase): inhibits glutamine synthetase

Compound: CC(C)C[C@H](N)C(=O)O [L-leucine]
- effect on opp expression (opp expression): induces opp expression

Compound: C[C@H]1O[C@H](O[C@H]2[C@H](O)[C@@H](O)[C@@H](O)[C@H](O)[C@@H]2O)[C@@H](N)C[C@@H]1NC(=N)C(=O)O [Kasugamycin]
- IC50 of mRNA Translation [3]: 192 µg/mL
- IC50 of mRNA Translation [4]: 390 µg/mL
- IC50 of mRNA Translation [5]: 384 µg/mL
- IC50 of mRNA Translation [6]: 780 µg/mL
- IC50 of mRNA Translation [7]: 880 µg/mL
- IC50 of mRNA Translation (ribosome, 16S rRNA wt): 12 µg/mL
- IC50 of mRNA Translation [8]: 750 µg/mL

Compound: tri-L-ornithine [Orn3]
- inhibition of translation in vivo (translation in vivo): inhibits translation in vivo
- inhibition of mRNA translation in vitro [9]: unable to inhibit mRNA translation
- active transport with antibacterial effects [1]: actively transported inside the cell causing antibacterial effects
- number of GE81112-resistant mutants cross-resistant to tri-L-ornithine [10]: 100
- Halo of Inhibition [11]: 14 mm
- Halo of Inhibition ([12]; 1 μg): 0 mm
- Halo of Inhibition ([12]; 10 μg): 0 mm
- Halo of Inhibition ([13]; 1 μg): 0 mm
- Halo of Inhibition ([13]; 10 μg): 0 mm
- Halo of Inhibition (E. coli MG1655; [19]): 10 mm
- growth inhibition, in words (E. coli MG1655; E. coli MG1655 (Table 4)): inhibited
- Halo of Inhibition (E. coli SS320 (wt); 1 μg): 7 mm
- Halo of Inhibition (E. coli SS320 (wt); 10 μg): 12 mm
- Halo of Inhibition [14]: 10 mm
- Halo of Inhibition (E. coli DH5α; [19]): 0 mm
- growth inhibition, in words (E. coli DH5α; E. coli DH5α (Table 4)): unaffected
- Halo of Inhibition ([15]; 1 μg): 0 mm
- Halo of Inhibition ([15]; 10 μg): 0 mm
- growth inhibition on minimal medium agar, in words ([15]; E. coli 5012, opp− mutant): insensitive
- Halo of Inhibition [16]: 11 mm
- Halo of Inhibition ([17]; 1 μg): 17 mm
- Halo of Inhibition ([17]; 10 μg): 27 mm
- sensitivity, in words ([17]; wt transformed with both pBΦ30 and pB2): more sensitive
- Halo of Inhibition ([18]; 1 μg): 18 mm
- Halo of Inhibition ([18]; 10 μg): 26 mm
- sensitivity, in words ([18]; expression in trans of oppA together with oppBCDF): sensitive

Compound: tri-L-alanine
- Opp substrate (Opp): known non-toxic Opp substrate
